According to the NIST ThermoML archive (doi:10.1021/je060411g):

Experiment: molar heat capacity at constant pressure
Conditions: 101.33 kPa

CCC(C)CO (stereo not given) [2-methyl-1-butanol]
Conditions	molar heat capacity at constant pressure [J/K/mol]
84.68 K, Glass	66.37
85.32 K, Glass	66.9
86.62 K, Glass	68.05
88.13 K, Glass	68.63
88.55 K, Glass	69.49
89.15 K, Glass	69.5
90.45 K, Glass	69.12
90.85 K, Glass	70.72
92.36 K, Glass	71.63
92.5 K, Glass	69.54
92.77 K, Glass	72.07
93.04 K, Glass	72.48
94.27 K, Glass	72.89
94.29 K, Glass	72.88
94.69 K, Glass	73.39
96.19 K, Glass	74.2
96.22 K, Glass	74.42
96.61 K, Glass	74.74
98.11 K, Glass	75.66
98.15 K, Glass	75.92
98.53 K, Glass	76.35
100.03 K, Glass	77.35
100.07 K, Glass	77.68
100.45 K, Glass	77.93
101.96 K, Glass	78.33
101.99 K, Glass	78.7
102.38 K, Glass	78.97
103.89 K, Glass	79.44
103.92 K, Glass	79.95
104.32 K, Glass	80.34
105.82 K, Glass	80.96
105.85 K, Glass	81.54
106.25 K, Glass	82
107.75 K, Glass	82.7
107.79 K, Glass	83.22
108.19 K, Glass	83.82
109.68 K, Glass	84.31
109.72 K, Glass	84.61
110.13 K, Glass	85.55
111.62 K, Glass	86.17
111.66 K, Glass	86.13
112.07 K, Glass	87.55
113.54 K, Glass	88.63
113.6 K, Glass	88.13
114.02 K, Glass	89.94
115.46 K, Glass	92.53
115.54 K, Glass	91.47
115.95 K, Glass	93.24
117.36 K, Glass	100.69
117.46 K, Glass	98.77
117.87 K, Glass	98.66
124.07 K, Liquid	145.49
124.32 K, Liquid	145.64
124.62 K, Liquid	145.89
125.99 K, Liquid	145.72
126.25 K, Liquid	145.78
126.56 K, Liquid	145.84
127.96 K, Liquid	145.9
128.21 K, Liquid	145.94
128.53 K, Liquid	145.95
129.93 K, Liquid	146.02
130.19 K, Liquid	146.06
130.5 K, Liquid	146.03
131.9 K, Liquid	146.08
132.16 K, Liquid	146.14
132.47 K, Liquid	146.14
133.88 K, Liquid	146.23
134.14 K, Liquid	146.25
134.45 K, Liquid	146.21
135.85 K, Liquid	146.27
136.11 K, Liquid	146.35
136.42 K, Liquid	146.35
137.83 K, Liquid	146.45
138.09 K, Liquid	146.51
138.4 K, Liquid	146.51
139.8 K, Liquid	146.64
140.06 K, Liquid	146.68
140.37 K, Liquid	146.62
141.77 K, Liquid	146.82
142.04 K, Liquid	146.87
142.35 K, Liquid	146.83
143.75 K, Liquid	146.95
144.02 K, Liquid	146.99
144.32 K, Liquid	146.98
145.73 K, Liquid	147.13
145.99 K, Liquid	147.22
146.3 K, Liquid	147.23
147.7 K, Liquid	147.38
147.97 K, Liquid	147.38
148.27 K, Liquid	147.42
149.68 K, Liquid	147.55
149.94 K, Liquid	147.65
150.25 K, Liquid	147.61
151.45 K, Liquid	147.59
151.8 K, Liquid	147.34
151.92 K, Liquid	147.82
152.97 K, Liquid	147.67
153.9 K, Liquid	148.01
154.95 K, Liquid	148.09
155.88 K, Liquid	148.33
156.92 K, Liquid	148.38
157.86 K, Liquid	148.55
158.9 K, Liquid	148.61
159.84 K, Liquid	148.75
160.88 K, Liquid	148.86
161.82 K, Liquid	149.02
162.85 K, Liquid	149.11
163.8 K, Liquid	149.23
164.83 K, Liquid	149.31
165.78 K, Liquid	149.53
166.81 K, Liquid	149.67
167.76 K, Liquid	149.85
168.79 K, Liquid	149.95
169.74 K, Liquid	150.13
170.77 K, Liquid	150.21
171.72 K, Liquid	150.38
172.75 K, Liquid	150.45
173.69 K, Liquid	150.67
174.73 K, Liquid	150.8
175.67 K, Liquid	150.96
176.7 K, Liquid	151.12
177.65 K, Liquid	151.36
178.68 K, Liquid	151.42
179.63 K, Liquid	151.66
180.65 K, Liquid	151.78
181.61 K, Liquid	151.91
182.63 K, Liquid	152.05
183.59 K, Liquid	152.19
184.61 K, Liquid	152.36
185.56 K, Liquid	152.59
186.59 K, Liquid	152.73
187.54 K, Liquid	152.92
188.56 K, Liquid	153.02
189.52 K, Liquid	153.24
190.54 K, Liquid	153.38
191.5 K, Liquid	153.55
192.51 K, Liquid	153.71
193.48 K, Liquid	153.87
194.49 K, Liquid	154.12
195.45 K, Liquid	154.28
196.47 K, Liquid	154.44
197.43 K, Liquid	154.67
198.44 K, Liquid	154.78
199.4 K, Liquid	155
200.41 K, Liquid	155.18
201.38 K, Liquid	155.44
202.39 K, Liquid	155.73
203.35 K, Liquid	155.9
204.36 K, Liquid	156.25
205.33 K, Liquid	156.37
206.33 K, Liquid	156.66
207.3 K, Liquid	156.95
208.31 K, Liquid	157.5
209.28 K, Liquid	157.69
210.28 K, Liquid	158.2
211.25 K, Liquid	158.49
212.25 K, Liquid	158.88
213.22 K, Liquid	159.25
214.23 K, Liquid	159.75
215.2 K, Liquid	160.09
216.21 K, Liquid	160.71
217.17 K, Liquid	160.99
218.18 K, Liquid	161.49
219.15 K, Liquid	161.82
220.15 K, Liquid	162.39
221.13 K, Liquid	162.7
222.13 K, Liquid	163.26
223.11 K, Liquid	163.61
224.1 K, Liquid	164.01
225.09 K, Liquid	164.48
226.08 K, Liquid	164.73
227.07 K, Liquid	165.18
228.06 K, Liquid	165.39
229.05 K, Liquid	165.83
230.04 K, Liquid	166.09
231.03 K, Liquid	166.52
232.02 K, Liquid	166.86
233.01 K, Liquid	167.29
233.99 K, Liquid	167.66
234.99 K, Liquid	168.13
235.97 K, Liquid	168.53
236.96 K, Liquid	169
237.94 K, Liquid	169.41
238.94 K, Liquid	169.88
239.92 K, Liquid	170.34
240.92 K, Liquid	170.8
241.89 K, Liquid	171.24
242.89 K, Liquid	171.69
243.86 K, Liquid	172.18
244.85 K, Liquid	172.64
245.82 K, Liquid	173.22
246.81 K, Liquid	173.63
247.77 K, Liquid	174.23
248.76 K, Liquid	174.73
249.72 K, Liquid	175.28
250.7 K, Liquid	175.88
251.66 K, Liquid	176.43
252.64 K, Liquid	177.14
253.59 K, Liquid	177.16
254.57 K, Liquid	177.34
255.52 K, Liquid	177.97
256.5 K, Liquid	178.62
257.44 K, Liquid	179.24
258.43 K, Liquid	179.85
259.36 K, Liquid	180.45
260.34 K, Liquid	181.06
261.27 K, Liquid	181.7
262.25 K, Liquid	182.25
263.18 K, Liquid	182.89
264.15 K, Liquid	183.6
265.08 K, Liquid	184.25
266.04 K, Liquid	184.88
266.97 K, Liquid	185.71
267.93 K, Liquid	186.53
268.85 K, Liquid	187.04
269.81 K, Liquid	187.76
270.72 K, Liquid	188.25
271.68 K, Liquid	189.05
272.59 K, Liquid	189.75
273.55 K, Liquid	190.39
274.46 K, Liquid	191.2
275.41 K, Liquid	191.82
276.31 K, Liquid	192.56
277.26 K, Liquid	193.3
278.16 K, Liquid	193.91
279.11 K, Liquid	194.8
280 K, Liquid	195.48
280.94 K, Liquid	196.42
281.83 K, Liquid	197.02
282.77 K, Liquid	197.86
283.66 K, Liquid	198.58
284.6 K, Liquid	199.41
285.47 K, Liquid	200.28
286.41 K, Liquid	201.04
287.29 K, Liquid	201.86
288.22 K, Liquid	202.76
289.09 K, Liquid	203.46
290.02 K, Liquid	204.47
290.89 K, Liquid	205.13
291.81 K, Liquid	206.07
292.67 K, Liquid	206.55
293.6 K, Liquid	207.65
294.46 K, Liquid	208.23
295.38 K, Liquid	209.45
296.23 K, Liquid	210.26
297.15 K, Liquid	211.14
298 K, Liquid	211.98
298.92 K, Liquid	212.94
299.76 K, Liquid	213.73
300.68 K, Liquid	214.69
